# Measured values published in patent publication US8217172B2, “Solid forms of 1-ethyl-3-(5-(5-fluoropyridin-3-yl)-7-(pyrimidin-2-yl)-1H-benzo[d]imidazol-2-yl)urea” (Vertex Pharmaceuticals Incorporated, priority 2007, dated 2012).
# How the values were obtained:
# Type in all cases: physicochemical
# [1] = Solubility in various media (equilibration on a shaking bed for 24 hours, HPLC); details: for Solubility, Total Conc: ambient, 24 h; for Solubility, Actual Conc / Solubility in 0.05M Buffers, Actual Conc: 24 h equilibration
# Protocol: Solubility: The solubility of form IA in various media was determined at ambient conditions by equilibrating aliquots of the drug powder with the solvents on a shaking bed for 24 hours. The samples were centrifuged, the saturated solutions of the drug were then separated and analyzed by HPLC. The sample volume was 100 μL and the target concentration was 10 mg/mL. The saturated solutions were diluted appropriately and analyzed by HPLC.
# Solubility: Solubility of form IIC in various media was determined at ambient conditions by equilibrating aliquots of the drug powder with the solvents on a shaking bed for 24 hours. Samples were spun and the supernatant was carefully separated and analyzed by HPLC at the 24-hour timepoint using a stability-indicating method. […] Some variability may occur between lots of a particular sample.
# Solubility: Solubility of form IIIB in various media was determined at ambient conditions by equilibrating aliquots of the drug powder with the medium on a shaking bed for 24 hours. The samples were centrifuged, the saturated solutions of the drug were then separated and analyzed by HPLC. The sample volume was 100 μL, and the target concentration was 10 mg/ml. The saturated solutions were diluted appropriately and analyzed by HPLC.
# [2] = Dynamic Vapor Sorption (DVS), step isothermal study; details: 25° C.; for weight gain from 5% to 95% relative humidity: step isothermic study (DVS)
# Protocol: Dynamic Vapor Sorption (DVS): A step isothermal study (25° C.) was conducted on a representative sample of form IA using a VTI SGA 100 Symmetric Vapor Sorption Analyzer. An aliquot of approximately 10 mg was weighed in an open platinum dish and exposed to different levels of humidity at 25° C. Relative humidity (RH) steps were from 5% to 95% (adsorption) and from 95% to 5% in increments of 5% RH (desorption). The equilibration criterion was 0.0100 wt % change in 5 min, with a max equilibration time of 180 min. The sample picked up ˜8 wt % moisture at 95% relative humidity (RH).
# Dynamic Vapor Sorption (DVS): A step isothermal study (25° C.) was conducted on a sample of form IIA using a VTI SGA 100 Symmetric Vapor Sorption Analyzer. An aliquot of approximately 10 mg was weighed in an open platinum dish and exposed to different levels of humidity at 25° C. Relative humidity (RH) steps were from 5% to 95% (adsorption) and from 95% to 5% in increments of 5% RH (desorption). The equilibration criterion was 0.0100 wt % change in 5 min, with a max equilibration time of 180 min. The material picked up ˜11 wt % moisture at 95% relative humidity (RH).
# Dynamic Vapor Sorption (DVS): A step isothermal study (25° C.) was conducted on a sample of form IIC using a VTI SGA 100 Symmetric Vapor Sorption Analyzer. An aliquot of approximately 10 mg was weighed in an open platinum dish and exposed to different levels of humidity at 25° C. Relative humidity (RH) steps were from 5% to 95% (adsorption) and from 95% to 5% in increments of 5% RH (desorption). The equilibration criterion was 0.0100 wt % change in 5 min, with a max equilibration time of 180 min. The material picked up ˜4 wt % moisture at 95% relative humidity (RH).
# Water Vapor Sorption analysis: Vapor Sorption analysis of a sample of form IIIB was done using a SGA-100 Vapor Sorption Analyzer (VTI, Hialeah, Fla.). A sample with weight of approximately 7-12 mg was measured isothermally at 25° C. Data was collected by Isotherm software and analyzed by Microsoft Excel with a VTI macro (VTI, Hialeah, Fla.). The sample gained about 4.6% in weight from 5 to 95% RH (25° C.).
# [3] = Stability analysis (chemical stability by HPLC, physical stability by XRPD); details: for chemically and physically stable for at least about / chemically and physically stable for at least about (e.g. value): various storage conditions, including 40° C./75% RH (e.g., open container)
# Description: In some embodiments, less than 25% of the form of Compound 1 decomposes, in some embodiments, less than about 20%, less than about 15%, less than about 10%, less than about 5%, less than about 3%, less than about 1%, less than about 0.5% of the form of Compound 1 decomposes under the conditions specified. In some embodiments, no detectable amount of the form of Compound 1 decomposes.
# In some embodiments, less than 25% of the form of Compound 1 changes into one or more different physical forms when subjected to specified conditions, In some embodiments, less than about 20%, less than about 15%, less than about 10%, less than about 5%, less than about 3%, less than about 1%, less than about 0.5% of the form of Compound 1 changes into one or more different physical forms of Compound 1 when subjected to specified conditions. In some embodiments, no detectable amount of the form of Compound 1 changes into one or more different physical forms of Compound 1.
# [4] = aqueous solution, pH of about 1.6
structure (smiles),measurement,setting,value
"CCNC(=O)Nc1nc2cc(-c3cncc(F)c3)cc(-c3ncccn3)c2[nH]1.CS(=O)(=O)O [Form IIIB, 1-ethyl-3-(5-(5-fluoropyridin-3-yl)-7-(pyrimidin-2-yl)-1H-benzo[d]imidazol-2-yl)urea•monomesylate]","Solubility, Total Conc","[1]; Captisol, 20%",3.81 mg/mL
same,"Solubility, Total Conc","[1]; Captisol, 30%, pH 7",0.634 mg/mL
same,"Solubility, Total Conc",[1]; Ethanol,0.439 mg/mL
same,"Solubility, Total Conc","[1]; HCl, 0.1N",12.2 mg/mL
same,"Solubility, Total Conc",[1]; Miglyol810,0.0219 mg/mL
same,"Solubility, Total Conc",[1]; Octanol,0.0584 mg/mL
same,"Solubility, Total Conc",[1]; PEG400,0.729 mg/mL
same,"Solubility, Total Conc","[1]; PluronicF108, 1%",>12.0 mg/mL
same,"Solubility, Total Conc",[1]; PropyleneGlycol,5.74 mg/mL
same,"Solubility, Total Conc",[1]; SGF,>12.0 mg/mL
same,"Solubility, Total Conc",[1]; SIF,0.0284 mg/mL
same,"Solubility, Total Conc","[1]; SodiumLaurylSulfate, 1%",0.623 mg/mL
same,"Solubility, Total Conc","[1]; TrisBuffer, pH 7",0.0276 mg/mL
same,"Solubility, Total Conc","[1]; Vitamin E TPGS, 10%, 1% HPMC",>12.0 mg/mL
same,"Solubility, Total Conc","[1]; Vitamin E TPGS, 10%",11.5 mg/mL
same,"Solubility, Total Conc",[1]; Water,>12.0 mg/mL
same,solubility,[1]; at pH of about 4.4,> 12 mg/mL
same,solubility,[1]; in simulated gastric fluid (SGF),> 12 mg/mL
same,weight gain from 5% to 95% relative humidity,[2],about 4.6%
same,chemically and physically stable for at least about,[3],at least 2 weeks
same,chemically and physically stable for at least about (e.g. value),[3],at least 1 months
"CCNC(=O)Nc1nc2cc(-c3cncc(F)c3)cc(-c3ncccn3)c2[nH]1.CCS(=O)(=O)O [Form IIC, 1-ethyl-3-(5-(5-fluoropyridin-3-yl)-7-(pyrimidin-2-yl)-1H-benzo[d]imidazol-2-yl)urea•monoesylate]","Solubility, Actual Conc","[1]; 0.1N HCl, pH 1.10, target 100 mg/ml",105 mg/mL
same,"Solubility, Actual Conc","[1]; 0.5% Methylcellulose (MC)/0.5% Sodium Lauryl Sulfate (SLS), pH 1.58, target 100 mg/ml",94.8 mg/mL
same,"Solubility, Actual Conc","[1]; 0.9% Sodium Chloride, target 100 mg/ml",33.6 mg/mL
same,"Solubility, Actual Conc","[1]; 1% Deoxycholic sodium salt (DOSS), pH 1.71, target 150 mg/ml",125 mg/mL
same,"Solubility, Actual Conc","[1]; 1% Docusate, pH 1.58, target 150 mg/ml",159 mg/mL
same,"Solubility, Actual Conc","[1]; 1% Pluronic F68, pH 1.57, target 150 mg/ml",155 mg/mL
same,"Solubility, Actual Conc","[1]; 1% Pluronic F108, pH 1.58, target 150 mg/ml",159 mg/mL
same,"Solubility, Actual Conc","[1]; 1% SLS, pH 1.56, target 150 mg/ml",126 mg/mL
same,"Solubility, Actual Conc","[1]; 1% Tween 80, pH 1.60, target 150 mg/ml",130 mg/mL
same,"Solubility, Actual Conc","[1]; 4% Glycerol, pH 1.59, target 150 mg/ml",162 mg/mL
same,"Solubility, Actual Conc","[1]; 10% Cremophor, pH 1.64, target 150 mg/ml",137 mg/mL
same,"Solubility, Actual Conc","[1]; 10% Polyvinyl pyrrolidone (PVP) K30, pH 1.70, target 150 mg/ml",152 mg/mL
same,"Solubility, Actual Conc","[1]; 10% Solutol, pH 1.61, target 150 mg/ml",170 mg/mL
same,"Solubility, Actual Conc","[1]; 10% Tween 80, pH 1.64, target 150 mg/ml",144 mg/mL
same,"Solubility, Actual Conc","[1]; 10% Vitamin E TPGS, pH 1.58, target 150 mg/ml",138 mg/mL
same,"Solubility in 0.05M Buffers, Actual Conc","[1]; Potassium chloride hydrochloric acid, pH 1, experimental pH 1.01",113 mg/mL
same,"Solubility in 0.05M Buffers, Actual Conc","[1]; Potassium phosphate monobasic-sodium hydroxide, pH 7",48.2 mg/mL
same,"Solubility in 0.05M Buffers, Actual Conc","[1]; Potassium phosphate monobasic-sodium hydroxide, pH 9, experimental pH 1.75",67.0 mg/mL
same,"Solubility, Actual Conc","[1]; Tetraglucol:Water (1:1), pH 2.08, target 50 mg/ml",29.6 mg/mL
same,"Solubility, Actual Conc","[1]; Water, pH 1.60, target 150 mg/ml",152 mg/mL
same,solubility,[1]; [4],> 150 mg/mL
same,"Solubility, Actual Conc","[1]; pH 7 Tris Buffer, target 100 mg/ml",30.0 mg/mL
same,hydrate formation,"[2]; DVS, 5% to 95% RH",did not form a hydrate
same,release of adsorbed water in the desorption stage,"[2]; DVS, 95% to 5% RH",All adsorbed water was released
same,moisture picked up at 95% relative humidity (RH),"[2]; DVS, adsorption 5% to 95% RH",~4 wt %
same,chemically and physically stable for at least about,[3],at least 2 weeks
same,chemically and physically stable for at least about (e.g. value),[3],at least 6 months
CCNC(=O)Nc1nc2cc(-c3cncc(F)c3)cc(-c3ncccn3)c2[nH]1.CS(=O)(=O)O [crystalline1-ethyl-3-(5-(5-fluoropyridin-3-yl)-7-(pyrimidin-] [1-ethyl-3-(5-(5-fluoropyridin-3-yl)-7-(pyrimidin-2-yl)-1H-benzo[d]imidazol-2-yl)urea.monomesylate],solubility,[1]; at pH of about 4.4,greater than 12 mg/ml
same,weight gain from 5% to 95% relative humidity,[2],4.6%
same,remains chemically stable for at least,[3]; 40° C./75% relative humidity,at least 1 months
same,remains in substantially the same physical form for at least,[3]; 40° C./75% relative humidity,at least 1 months
CCNC(=O)Nc1nc2cc(-c3cncc(F)c3)cc(-c3ncccn3)c2[nH]1.CCS(=O)(=O)O [crystalline 1-ethyl-3-(5-(5-fluoropyridin-3-yl)-7-(pyrimidin] [1-ethyl-3-(5-(5-fluoropyridin-3-yl)-7-(pyrimidin-2-yl)-1H-benzo[d]imidazol-2-yl)urea.monoesylate],solubility,[1]; [4],greater than 150 mg/ml
same,remains chemically stable for at least about,[3]; 40° C./75% relative humidity,at least 2 weeks
same,remains in substantially the same physical form for at least,[3]; 40° C./75% relative humidity,at least 6 months
same,remains in substantially the same physical form for at least about,[3]; 40° C./75% relative humidity,at least 2 weeks
"CCNC(=O)Nc1nc2cc(-c3cncc(F)c3)cc(-c3ncccn3)c2[nH]1.CCS(=O)(=O)O [Form IID, 1-ethyl-3-(5-(5-fluoropyridin-3-yl)-7-(pyrimidin-2-yl)-1H-benzo[d]imidazol-2-yl)urea•monoesylate]",solubility,[1]; [4],> 150 mg/mL
"CCNC(=O)Nc1nc2cc(-c3cncc(F)c3)cc(-c3ncccn3)c2[nH]1.CCS(=O)(=O)O [Form IIB, 1-ethyl-3-(5-(5-fluoropyridin-3-yl)-7-(pyrimidin-2-yl)-1H-benzo[d]imidazol-2-yl)urea•monoesylate]",solubility,[1]; [4],> 150 mg/mL
